Usually IC50 stands for the midpoint of a concentration-inhibition curve. What is called Ki is the equilibrium dissociation constant of an inhibitor or competing ligand from its target.

Experimental findings from ChEMBL document CHEMBL1909046, “DrugMatrix in vitro pharmacology data” are described below.

The target of test [1] is Sodium-dependent dopamine transporter (Homo sapiens, UniProt Q01959). Description: DRUGMATRIX: Dopamine Transporter radioligand binding (ligand: [125I] RTI-55). The test is classed as cell membranes, CHO-K1, Membrane. The following applies: Not Active = under 50% inhibition at 10 µM.
Sodium-dependent dopamine transporter, sequence (Q01959 whole entry): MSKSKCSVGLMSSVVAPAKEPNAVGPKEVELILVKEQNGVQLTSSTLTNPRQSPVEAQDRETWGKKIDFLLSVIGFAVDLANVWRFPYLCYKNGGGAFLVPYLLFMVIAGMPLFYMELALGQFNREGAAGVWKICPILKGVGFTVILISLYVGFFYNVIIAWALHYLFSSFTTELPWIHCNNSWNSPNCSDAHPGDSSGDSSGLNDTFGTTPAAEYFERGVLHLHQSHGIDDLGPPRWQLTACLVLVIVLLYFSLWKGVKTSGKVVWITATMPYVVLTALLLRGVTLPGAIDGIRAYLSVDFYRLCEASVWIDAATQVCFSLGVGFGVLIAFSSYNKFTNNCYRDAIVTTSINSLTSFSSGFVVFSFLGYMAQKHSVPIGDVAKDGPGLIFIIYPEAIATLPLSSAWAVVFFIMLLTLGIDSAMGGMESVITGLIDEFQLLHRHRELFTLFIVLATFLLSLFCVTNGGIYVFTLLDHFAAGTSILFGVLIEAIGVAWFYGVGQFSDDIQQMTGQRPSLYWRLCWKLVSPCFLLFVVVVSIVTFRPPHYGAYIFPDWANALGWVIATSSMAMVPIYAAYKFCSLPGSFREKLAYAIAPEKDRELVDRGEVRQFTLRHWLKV
A short description of test [2]: DRUGMATRIX: Leukotriene, BLT (LTB4) radioligand binding (ligand: [3H]LTB4). The note with it: u-937; Not Active = under 50% inhibition at 10 µM. The test is classed as cell membranes, Membrane.
Test [3] is described as follows: DRUGMATRIX: Nicotinic Acetylcholine radioligand binding (ligand: [125I] Epibatidine). The format is cell membranes, Membrane. The following applies: imr-32; Not Active = under 50% inhibition at 10 µM.
Test [4] has as its target Platelet-activating factor receptor (Homo sapiens, UniProt P25105). The test is classed as tissue-based. Further: in other assays of this panel Not Active means under 50% inhibition at 10 µM.
The target of another test is T1, Caspase-1 (Homo sapiens, UniProt P29466).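 Further: Caspase-1 enzyme inhibition assay with a peptide substrate; in other assays of this panel Not Active means under 50% inhibition at 10 µM.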
T1 sequence (P29466 whole entry): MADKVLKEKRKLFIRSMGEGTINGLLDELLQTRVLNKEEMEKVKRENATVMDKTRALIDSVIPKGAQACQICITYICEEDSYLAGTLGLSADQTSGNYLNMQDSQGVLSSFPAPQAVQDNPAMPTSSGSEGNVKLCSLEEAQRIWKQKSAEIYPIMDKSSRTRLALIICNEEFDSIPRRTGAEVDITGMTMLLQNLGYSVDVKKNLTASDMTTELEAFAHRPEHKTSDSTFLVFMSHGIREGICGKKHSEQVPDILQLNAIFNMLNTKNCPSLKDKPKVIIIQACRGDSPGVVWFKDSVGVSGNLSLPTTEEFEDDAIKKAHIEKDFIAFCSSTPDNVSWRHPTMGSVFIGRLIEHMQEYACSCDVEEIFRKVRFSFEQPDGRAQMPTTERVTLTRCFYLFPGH
Also noted: species or system Escherichia coli.

In test [5] the target is T2, 5-hydroxytryptamine receptor 1A (Rattus norvegicus, UniProt P19327). Further: in other assays of this panel Not Active means under 50% inhibition at 10 µM.
T2 sequence (P19327 whole entry): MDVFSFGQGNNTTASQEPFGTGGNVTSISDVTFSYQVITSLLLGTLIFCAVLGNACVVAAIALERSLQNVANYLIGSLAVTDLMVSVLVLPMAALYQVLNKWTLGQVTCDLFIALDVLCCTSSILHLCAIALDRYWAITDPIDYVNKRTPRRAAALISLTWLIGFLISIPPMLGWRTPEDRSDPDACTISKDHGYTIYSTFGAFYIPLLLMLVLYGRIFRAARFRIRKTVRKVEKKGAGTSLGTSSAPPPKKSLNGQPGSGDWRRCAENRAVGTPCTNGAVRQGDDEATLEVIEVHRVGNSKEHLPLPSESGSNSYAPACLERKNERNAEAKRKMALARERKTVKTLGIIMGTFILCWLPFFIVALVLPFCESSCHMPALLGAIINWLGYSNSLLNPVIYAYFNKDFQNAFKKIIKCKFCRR
The format is cell membranes, CHO-K1, Membrane. The following applies: for Ki: read-out: Ki.

SMILES strings stand for the structures.

Platelet-activating factor receptor, sequence (P25105 whole entry): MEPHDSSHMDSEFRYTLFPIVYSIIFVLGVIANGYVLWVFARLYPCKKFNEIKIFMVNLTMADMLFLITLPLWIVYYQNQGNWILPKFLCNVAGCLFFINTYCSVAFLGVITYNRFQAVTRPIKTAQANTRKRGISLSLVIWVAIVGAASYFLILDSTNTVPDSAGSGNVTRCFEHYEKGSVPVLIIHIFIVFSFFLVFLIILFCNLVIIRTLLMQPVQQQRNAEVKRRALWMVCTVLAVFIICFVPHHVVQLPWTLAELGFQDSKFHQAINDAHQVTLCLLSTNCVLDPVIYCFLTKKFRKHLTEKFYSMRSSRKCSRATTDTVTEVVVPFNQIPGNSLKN

Consider `COc1cc2c3cc1Oc1cc(ccc1O)C[C@@H]1c4c(cc(OC)c(O)c4Oc4ccc(cc4)C[C@@H]3N(C)CC2)CC[N+]1(C)C.[Cl-]`, for which the IC50 result (in test [1] (cho-k1); in test [2]; in test [3]; in test [4]; against Caspase-1; in test [5] (cho-k1)) was “Not Active” each time. The inhibition constant (Ki) entry in test [2] and in test [3] was “Not Active” each time.
With `CC(C)(C)NCC(O)c1cc(Cl)c(N)c(Cl)c1` (configuration not stated) [CLENBUTEROL], the IC50 result is “Not Active” in test [1] (cho-k1); “Not Active” in test [2]; “Not Active” in test [3]; “Not Active” in test [4]; “Not Active” against Caspase-1; 2650 nM in test [5] (read-out: IC50). For the same molecule, the values for the Ki result in test [2], in test [3] and in test [5] were “Not Active”, “Not Active” and 1520 nM, respectively.
In the case of `CC(C)(Oc1ccc(Cl)cc1)C(=O)O` [CLOFIBRIC ACID], the IC50 entry (in test [1] (cho-k1); in test [2]; in test [3]; in test [4]; against Caspase-1; in test [5] (cho-k1)) was “Not Active” throughout. Further, the inhibitory constant (Ki) entry in test [2] and in test [3] was “Not Active” each time.
For `O=C1CC[C@@H](N2C(=O)c3ccccc3C2=O)C(=O)N1`, the IC50 entry (in test [1] (cho-k1); in test [2]; in test [3]; in test [4]; on Caspase-1; in test [5] (cho-k1)) was “Not Active” throughout. Further, the Ki result in test [2] and in test [3] was “Not Active” each time.
For the molecule `C[C@]12CC[C@@H]3c4ccc(O)cc4CC[C@H]3[C@@H]1CCC2=O` [ESTRONE], the IC50 entry (in test [1] (cho-k1); in test [2]; in test [3]; in test [4]; against Caspase-1; in test [5] (cho-k1)) was “Not Active” each time. Besides, the Ki entry in test [2] and in test [3] was “Not Active” in each case.
For the molecule `NC1=NC(=O)C(c2ccccc2)O1` (configuration not stated) [PEMOLINE], the IC50 in test [1] (read-out: IC50) is 521 nM; in test [2], “Not Active”; in test [3], “Not Active”; in test [4], “Not Active”; at Caspase-1, “Not Active”; in test [5] (cho-k1), “Not Active”. In addition, the Ki is 414 nM in test [1] (read-out: Ki), “Not Active” in test [2] and “Not Active” in test [3].
Consider `CN(C)c1nc(N(C)C)nc(N(C)C)n1` [ALTRETAMINE], for which the IC50 result (in test [1] (cho-k1); in test [2]; in test [3]; in test [4]; against Caspase-1; in test [5] (cho-k1)) was “Not Active” throughout. Further, the Ki result in test [2] and in test [3] was “Not Active” throughout.
On to `Clc1cccc(Cl)c1NC1=NCCN1` [CLONIDINE], for which the IC50 entry was “Not Active” in test [1] (cho-k1); “Not Active” in test [2]; “Not Active” in test [3]; “Not Active” in test [4]; “Not Active” against Caspase-1; 5360 nM in test [5] (read-out: IC50). For the same molecule, the Ki entry in test [2] was “Not Active”; in test [3], “Not Active”; in test [5] it was 3070 nM.
With `C[C@H](CS)C(=O)N1CCC[C@H]1C(=O)O` [CAPTOPRIL], the IC50 entry (in test [1] (cho-k1); in test [2]; in test [3]; in test [4]; at Caspase-1; in test [5] (cho-k1)) was “Not Active” each time. Moreover, the Ki entry in test [2] and in test [3] was “Not Active” each time.
Consider `C[C@H]1O[C@@H](O[C@H]2[C@@H](O)C[C@H](O[C@H]3[C@@H](O)C[C@H](O[C@H]4CC[C@@]5(C)[C@H](CC[C@@H]6[C@@H]5C[C@@H](O)[C@]5(C)[C@@H](C7=CC(=O)OC7)CC[C@]65O)C4)O[C@@H]3C)O[C@@H]2C)C[C@H](O)[C@@H]1O` [DIGOXIN], for which the IC50 result (in test [1] (cho-k1); in test [2]; in test [3]; in test [4]; against Caspase-1; in test [5] (cho-k1)) was “Not Active” throughout. Besides, the Ki entry in test [2] and in test [3] was “Not Active” throughout.
`CN(C)CCCN1c2ccccc2Sc2ccc(Cl)cc21` [CHLORPROMAZINE]: the IC50 entry is “Not Active” in test [2]; “Not Active” in test [3]; “Not Active” in test [4]; “Not Active” against Caspase-1; 4680 nM in test [5] (read-out: IC50). The Ki result in test [2] was “Not Active”; in test [3] it was “Not Active”; in test [5] it was 2680 nM.
For the molecule `CN(C)CCCN1c2ccccc2Sc2ccccc21` [PROMAZINE], the IC50 result is “Not Active” in test [1] (cho-k1); “Not Active” in test [2]; “Not Active” in test [3]; “Not Active” in test [4]; “Not Active” at Caspase-1; 5170 nM in test [5] (read-out: IC50). The Ki entry in test [2] is “Not Active”; in test [3], “Not Active”; in test [5] it was 2960 nM.
Regarding `C[C@](N)(Cc1ccc(O)c(O)c1)C(=O)O` [METHYLDOPA], the 50% inhibitory concentration (IC50) entry (in test [1] (cho-k1); in test [2]; in test [3]; in test [4]; against Caspase-1; in test [5] (cho-k1)) was “Not Active” each time. Moreover, the inhibition constant Ki result in test [2] and in test [3] was “Not Active” in each case.
On to `CCCC1O[C@@H]2C[C@H]3[C@@H]4CCC5=CC(=O)C=C[C@]5(C)[C@H]4[C@@H](O)C[C@]3(C)[C@]2(C(=O)CO)O1` (some centres not stated) [BUDESONIDE], for which the IC50 result (in test [1] (cho-k1); in test [2]; in test [3]; in test [4]; against Caspase-1; in test [5] (cho-k1)) was “Not Active” in each case. In addition, the Ki result in test [2] and in test [3] was “Not Active” each time.
On to `Cc1ccccc1N1C(=O)c2cc(S(N)(=O)=O)c(Cl)cc2NC1C` (configuration not stated) [METOLAZONE], for which the 50% inhibitory concentration (IC50) entry (in test [1] (cho-k1); in test [2]; in test [3]; in test [4]; against Caspase-1; in test [5] (cho-k1)) was “Not Active” throughout. Further, the Ki result in test [2] and in test [3] was “Not Active” in each case.
`O=c1[nH]c(=O)n([C@H]2C[C@H](O)[C@@H](CO)O2)cc1I` [IDOXURIDINE]: the IC50 result (in test [1] (cho-k1); in test [2]; in test [3]; in test [4]; at Caspase-1; in test [5] (cho-k1)) was “Not Active” throughout. Further, the Ki result in test [2] and in test [3] was “Not Active” each time.
Take `CC(=O)O[C@@]12CO[C@@H]1C[C@H](O)[C@@]1(C)C(=O)[C@H](O)C3=C(C)[C@@H](OC(=O)[C@H](O)[C@@H](NC(=O)OC(C)(C)C)c4ccccc4)C[C@@](O)([C@@H](OC(=O)c4ccccc4)[C@H]21)C3(C)C.O.O.O` [DOCETAXEL]: the IC50 entry (in test [1] (cho-k1); in test [2]; in test [3]; in test [4]; on Caspase-1; in test [5] (cho-k1)) was “Not Active” throughout. Besides, the Ki entry in test [2] and in test [3] was “Not Active” each time.
Take `C[C@H]1c2cccc(O)c2C(=O)C2=C(O)[C@]3(O)C(=O)C(C(N)=O)=C(O)[C@@H](N(C)C)[C@@H]3[C@@H](O)[C@@H]21.O` [DOXYCYCLINE]: the IC50 result (in test [1] (cho-k1); in test [2]; in test [3]; in test [4]; against Caspase-1; in test [5] (cho-k1)) was “Not Active” each time. For the same molecule, the Ki result in test [2] and in test [3] was “Not Active” throughout.
For the molecule `CC(NC(C)(C)C)C(=O)c1cccc(Cl)c1` (configuration not stated) [BUPROPION], the IC50 entry (in test [2]; in test [3]; in test [4]; at Caspase-1; in test [5] (cho-k1)) was “Not Active” throughout. In addition, the Ki entry in test [2] and in test [3] was “Not Active” in each case.
`COc1cc2nc(N3CCN(C(=O)C4COc5ccccc5O4)CC3)nc(N)c2cc1OC` (configuration not stated) [DOXAZOSIN]: the IC50 result (in test [2]; in test [3]; in test [4]; on Caspase-1; in test [5] (cho-k1)) was “Not Active” in each case. The inhibitory constant (Ki) entry in test [2] and in test [3] was “Not Active” throughout.
